{"source": "patent US20250092043A1", "about": "“Kinase Inhibitors and Degraders” (Incyte Corporation, priority 2023, published 2025)"}
{"molecular_target": "T1, JAK2 (Homo sapiens, UniProt O60674, V617F)", "T1 construct": "their effect on JAK2 protein degradation in SET2 cells; host or cells: SET2 cells (human essential thrombocythemia)", "T1 sequence (O60674 whole entry V617F)": "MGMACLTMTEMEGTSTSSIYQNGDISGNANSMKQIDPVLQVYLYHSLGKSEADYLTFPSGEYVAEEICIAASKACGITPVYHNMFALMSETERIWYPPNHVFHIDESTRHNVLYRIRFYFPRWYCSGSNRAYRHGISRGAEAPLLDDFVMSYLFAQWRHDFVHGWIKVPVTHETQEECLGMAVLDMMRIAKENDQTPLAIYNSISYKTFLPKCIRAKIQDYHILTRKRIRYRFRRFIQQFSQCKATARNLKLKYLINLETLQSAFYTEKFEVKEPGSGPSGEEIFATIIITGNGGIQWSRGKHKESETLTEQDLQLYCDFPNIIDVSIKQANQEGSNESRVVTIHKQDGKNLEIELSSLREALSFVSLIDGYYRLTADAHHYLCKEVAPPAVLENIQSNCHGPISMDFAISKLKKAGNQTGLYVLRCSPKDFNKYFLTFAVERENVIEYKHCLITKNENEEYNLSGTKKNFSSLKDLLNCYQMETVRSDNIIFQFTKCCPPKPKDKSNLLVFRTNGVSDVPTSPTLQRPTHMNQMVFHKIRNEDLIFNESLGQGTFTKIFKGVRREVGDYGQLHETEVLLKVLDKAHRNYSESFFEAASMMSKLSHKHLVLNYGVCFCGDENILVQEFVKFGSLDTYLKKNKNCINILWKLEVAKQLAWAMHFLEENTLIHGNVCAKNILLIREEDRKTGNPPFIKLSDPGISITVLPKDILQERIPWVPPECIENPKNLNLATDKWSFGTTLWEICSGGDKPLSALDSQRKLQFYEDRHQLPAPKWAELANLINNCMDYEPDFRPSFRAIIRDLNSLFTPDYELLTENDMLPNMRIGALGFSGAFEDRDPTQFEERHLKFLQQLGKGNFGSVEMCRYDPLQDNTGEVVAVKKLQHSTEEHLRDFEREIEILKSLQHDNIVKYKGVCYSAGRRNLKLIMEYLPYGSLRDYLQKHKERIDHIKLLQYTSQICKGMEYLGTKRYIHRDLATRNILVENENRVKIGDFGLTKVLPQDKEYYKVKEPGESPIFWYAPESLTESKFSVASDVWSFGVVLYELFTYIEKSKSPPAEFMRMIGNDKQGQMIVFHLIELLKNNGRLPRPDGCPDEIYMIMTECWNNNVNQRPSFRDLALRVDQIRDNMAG", "assay": "Western blot quantitation of JAK2 degradation in SET2 cells", "assay_type": "cell-based", "conditions": "10 μM compound, 8 hours treatment, western blot densitometry vs. DMSO vehicle", "procedure": "Example E. Western Blot Analysis of JAK2 Dependent SET2 Cells Treated with Compounds of the Present Disclosure\nSET2 cells (DSMZ, catalog number ACC 608) are isolated from a person with human essential thrombocythemia and carry the JAK2 V617F mutation.\nSET2 cells were cultured in RPMI culture medium (Gibco, catalog number 11875085) supplemented with 1% penicillin-streptomycin-glutamine (Thermo Fisher Scientific, catalog number 10378016) and 20% fetal bovine serum (Gibco, catalog number 10438034). Cultured cells were maintained at 37° C., 5% CO2 in the incubator.\nApproximately 1,000,000 cells/well were added in 6-well plate containing 1.5 ml culture media with specified concentrations of compounds of the present disclosure or DMSO control. Cells were treated with concentrations of 10 uM, 5 uM, 1 uM, and 0.5 uM. Proteasome inhibitor MG-132 (Cell signaling, catalog number 2194) was added at 20 uM to an additional 10 uM compound treatment. The treatment period was 8 hours. After 8 hours, cells were collected in 1.5 mL microcentrifuge tubes. Tubes were centrifuged at 1500 rpm for 5 min. Supernatant was aspirated and samples were washed with 1 mL of cold PBS. The samples were centrifuged again at 1500 rpm for 5 min, supernatant was aspirated. The sample pellets were lysed using 150 μL of 1× lysing buffer (Cell Signaling Technologies—catalog number 9803S) supplemented with 1× Halt™ Protease and Phosphatase Inhibitor Cocktail (Thermo Fisher Scientific—catalog number 78447). Using Pierce™ BCA Protein Assay Kit (Thermo Fisher Scientific—catalog number 23225), protein concentration of the samples were quantitated. After normalizing sample concentration to approximately 20 ug/well, samples were loaded onto 4-12% Tris-glycine gels. Gels were transferred to nitrocellulose membranes using iBlot 2 Dry Blotting System and iBlot™ 2 Transfer Stacks, nitrocellulose (Thermo Fisher Scientific—catalog number IB23001). Following transfer, membranes were blocked with StartingBlock (Thermo Fisher Scientific—catalog number 37543). After 1 hour of blocking membranes, they were probed for JAK2, pSTAT5, STAT5, CRBN, and GAPDH (Cell Signaling—catalog numbers 3230, 4322, 25656, 71810, and 5174 respectively).\nCompounds of the present disclosure were screened at various concentrations to determine their effect on JAK2 protein degradation in SET2 cells, using methods as described above. DMSO was used as the vehicle control with no PROTAC® added. Co-administration of 20 μM of the proteasome inhibitor MG-132 with the PROTAC® compound at its highest concentration (i.e., 5 or 10 μM) tested was conducted to support the hypothesis that the degradation was driven by the ubiquitin-proteosome system (UPS). Degradation was evaluated by western blot densitometry quantitation using the FluorChem M instrument software to analyze the intensity of the JAK2 band signal at various concentrations of PROTAC® compound vs. the JAK2 band signal of the DMSO vehicle. It is noted that ˜82% of JAK2 exists as the V617F mutant, with the remaining 18% of JAK2 being WT. Therefore, if the V617F mutant JAK2 is selectively degraded over the WT, the maximum degradation is ˜80%. Degradation was graded as A: […]; B: ≥40% to <60% degradation; C: ≥20% to <40% degradation, D: <20% to ≥10%; E<10%. ** refers to degradation at 0.5 μM."}
{"smiles": "COC(=O)N[C@@H]1CC[C@@H](n2c(=O)n(C)c3cnc4[nH]c(-c5ccc(C(=O)N6CCC(CN7CCN(c8ccc9c(c8)CN(C8CCC(=O)NC8=O)C9=O)CC7)CC6)cc5)c(-c5ccc6c(cnn6C(C)C)c5)c4c32)C1", "note": "(stereo partly drawn) [Example 35, methyl ((1R,3R)-3-(7-(4-(4-((4-(2-(2,6-dioxopiperidin-3-yl)-1-oxoisoindolin-5-yl)piperazin-1-yl)methyl)piperidine-1-carbonyl)phenyl)-8-(1-isopropyl-1H-indazol-5-yl)-3-methyl-2-oxo-3,6-dihydroimidazo[4,5-d]pyrrolo[2,3-b]pyridin-1(2H)-yl)cyclopentyl) carbamate]", "JAK2 % Degradation in SET2": "A (A: ≥600% degradation)"}
{"smiles": "CN[C@@H](C)C(=O)N[C@H](C(=O)N1C[C@@H](NC(=O)[C@H]2CC[C@H](CNC(=O)c3ccc(-c4[nH]c5ncc6c(c5c4-c4ccc5c(cnn5C(C)C)c4)n([C@@H]4CC[C@@H](NC(=O)OC)C4)c(=O)n6C)cc3F)CC2)C[C@H]1C(=O)N[C@@H]1CCCc2ccccc21)C1CCCCC1", "note": "[Example 47, Methyl((1R,3R)-3-(7-(4-((((trans)-4-(((3S,5S)-1-((S)-2-cyclohexyl-2-((S)-2-(methylamino)propanamido)acetyl)-5-(((R)-1,2,3,4-tetrahydronaphthalen-1-yl)carbamoyl)pyrrolidin-3-yl)carbamoyl)cyclohexyl)methyl)carbamoyl)-3-fluorophenyl)-8-(1-isopropyl-1H-indazol-5-yl)-3-methyl-2-oxo-3,6-dihydroimidazo[4,5-d]pyrrolo[2,3-b]pyridin-1(2H)-yl)cyclopentyl)carbamate]", "JAK2 % Degradation in SET2": "C (C: ≥20% to <40% degradation)"}
{"smiles": "COC(=O)N[C@@H]1CC[C@@H](n2c(=O)n(C)c3cnc4[nH]c(-c5ccc(C(=O)NC[C@H]6CC[C@H](C(=O)Nc7ccc8c(c7)CN(C7CCC(=O)NC7=O)C8=O)CC6)c(F)c5)c(-c5ccc6c(cnn6C(C)C)c5)c4c32)C1", "note": "(stereo partly drawn) [Example 54, Methyl((1R,3R)-3-(7-(4-((((trans-)-4-((2-(2,6-dioxopiperidin-3-yl)-1-oxoisoindolin-5-yl)carbamoyl)cyclohexyl)methyl)carbamoyl)-3-fluorophenyl)-8-(1-isopropyl-1H-indazol-5-yl)-3-methyl-2-oxo-3,6-dihydroimidazo[4,5-d]pyrrolo[2,3-b]pyridin-1(2H)-yl)cyclopentyl)carbamate]", "JAK2 % Degradation in SET2": "C (C: ≥20% to <40% degradation)"}
{"smiles": "CCNC(=O)[C@H](Cc1ccc(F)cc1)NC(=O)[C@@H]1CCCN1C(=O)[C@@H](NC(=O)[C@H](C)NCCOCCNC(=O)c1ccc(-c2[nH]c3ncc4c(c3c2-c2ccc3c(cnn3C(C)C)c2)n([C@@H]2CC[C@@H](NC(=O)OC)C2)c(=O)n4C)cc1F)C1CCCCC1", "note": "[Example 31, methyl ((1R,3R)-3-(7-(4-((2-(2-(((S)-1-(((S)-1-cyclohexyl-2-((S)-2-(((S)-1-(ethylamino)-3-(4-fluorophenyl)-1-oxopropan-2-yl)carbamoyl)pyrrolidin-1-yl)-2-oxoethyl)amino)-1-oxopropan-2-yl)amino)ethoxy)ethyl)carbamoyl)-3-fluorophenyl)-8-(1-isopropyl-1H-indazol-5-yl)-3-methyl-2-oxo-3,6-dihydroimidazo[4,5-d]pyrrolo[2,3-b]pyridin-1(2H)-yl)cyclopentyl) carbamate]", "JAK2 % Degradation in SET2": "C (C: ≥20% to <40% degradation)"}
{"smiles": "COC(=O)N[C@@H]1CC[C@@H](n2c(=O)n(C)c3cnc4[nH]c(-c5ccc(C(=O)N6CCC(CN7CCN(c8cccc9c8C(=O)N(C8CCC(=O)NC8=O)C9=O)CC7)CC6)c(OC)c5)c(-c5ccc6c(cnn6C(C)C)c5)c4c32)C1", "note": "(stereo partly drawn) [Example 28, methyl ((1R,3R)-3-(7-(4-(4-((4-(2-(2,6-dioxopiperidin-3-yl)-1,3-dioxoisoindolin-4-yl)piperazin-1-yl)methyl)piperidine-1-carbonyl)-3-methoxyphenyl)-8-(1-isopropyl-1H-indazol-5-yl)-3-methyl-2-oxo-3,6-dihydroimidazo[4,5-d]pyrrolo[2,3-b]pyridin-1(2H)-yl)cyclopentyl) carbamate]", "JAK2 % Degradation in SET2": "B (B: ≥40% to <60% degradation)"}
